In this experiment the test system is CEM cells HIV-1 protection, formazan growth assay. Briefly: NCI AIDS Antiviral Assay. Particulars: for IC50: measured here: growth of uninfected CEM cells. The method, then:
The ability of compounds to protect human CEM cells from HIV-1 infection is measured as a screen for new compounds capable of inhibiting the HIV virus. Five concentrations of drug were tested on uninfected and infected cells and cell growth was measured using a soluble formazan assay. […] Compounds that provided at least 50% protection were retested. Compounds that provided at least 50% protection on retest were listed as moderately active. Compounds that reproducibly provided 100% protection were listed as confirmed active. […] Note that the inability to provide protection could be due to toxicity.

Activity calls are given as the source filed them.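 How the source made its calls: active means compounds giving half or more protection of infected cells from virus-caused growth loss, again on retest; inactive means the rest.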

For orientation: EC50 means the concentration at which the effect is half-maximal. Usually IC50 stands for the concentration at which inhibition is half-maximal. A high value points to weaker potency. Take `COc1ccccc1OC(=O)/C=C/c1ccccc1`: the EC50 is more than 200 µM and the IC50 was found to be 3.72 µM. The matching figures for `CCOC(=O)/C(C(N)=O)=C(/O)c1cnccn1`: more than 200 µM and more than 200 µM. The matching figures for `c1ccc2c(c1)[nH]c1c[n+]3c(c[n+]12)[nH]c1ccccc13`: more than 200 µM and more than 200 µM. The matching figures for `COc1cccc(Oc2c(O)c3ccc(OC)cc3oc2=O)c1`: more than 200 µM and 141 µM. `CC1C2CC(CC2(C)O)C1(C)C` (stereo not drawn): the EC50 is more than 562 µM and the IC50 is more than 562 µM.

For the compound `CC(=O)OC(CC1(C)C(C)CCC23COC(=O)C2=CCCC31)c1ccoc1` (stereo not drawn), the EC50 was more than 69.2 µM and the IC50 is 30.2 µM. For `CN(C)Cc1cc(C(=O)/C=C/c2ccc([N+](=O)[O-])cc2)cc(CN(C)C)c1O`, in that order: more than 200 µM and 2.82 µM. For `Cc1ccc(S(=O)(=O)Nc2nnc(S(N)(=O)=O)s2)cc1`, the EC50 is more than 200 µM and the IC50 was more than 200 µM. On to `CCC1(c2ccccc2)Sc2ccccc2-n2cccc2C1=O` (stereo not drawn), for which the EC50 was 18.2 µM and the concentration for half-maximal inhibition (IC50) was 155 µM.

As to `O=[N+]([O-])C1(CO)COC(CCc2ccccc2)OC1` (stereo not drawn), the outcome was inactive. On to `CCN1CCC(O)(c2ccc(Cl)c(Cl)c2)C(C(=O)c2ccc(Cl)c(Cl)c2)C1` (stereo not drawn), for which the EC50 is more than 67.6 µM and the IC50 was 38.9 µM. The matching figures for `O=C1/C(=C/c2ccccc2F)Cc2ccccc21`: more than 21.9 µM and more than 21.9 µM.

As for `COC(=O)C1CC(=O)CCC1c1ccccc1` (stereo not drawn), the EC50 is more than 347 µM and the IC50 was more than 347 µM. For the compound `CC1(C(=O)Nc2ccc3ccccc3c2)CC2(C)CC(C)(C1)C(O)NC2=O` (stereo not drawn), the result was inactive. On to `CCOC(=O)Nc1ccc2c(c1)/C(=N\NC(N)=S)c1ccccc1-2`, for which the EC50 was more than 200 µM and the half-maximal inhibitory concentration (IC50) is 3.39 µM. Consider `O=C1NC(c2cccs2)N2C(=O)NC(c3cccs3)N12` (stereo not drawn), for which the EC50 was more than 200 µM and the IC50 came out at 145 µM. On to `COC(=O)NC1C(C)OC(OC2C/C=C(/C)C3C=CC4C(OC5CC(OC6CCC(OC7CC(O)C(OC8CCC(O)C(C)O8)C(C)O7)C(C)O6)C(OC(C)=O)C(C)O5)C(C)CC(C)C4C3(C)/C(O)=C3/C(=O)OC4(CC(C=O)=CC(O)C4/C=C\2C)C3=O)CC1(C)[N+](=O)[O-]` (stereo not drawn), for which the EC50 is more than 186 µM and the 50% inhibitory concentration (IC50) was 0.191 µM. The matching figures for `COC(=O)NC1C(C)OC(OC2C/C=C(/C)C3C=CC4C(OC5CC(OC6CC(O)C(OC7CC(O)C(OC)C(C)O7)C(C)O6)C(O)C(C)O5)C(C)CC(C)C4C3(C)/C(O)=C3\C(=O)OC4(CC(C)C(CO)=CC4/C=C\2C)C3=O)CC1(C)[N+](=O)[O-]` (stereo not drawn): more than 209 µM and 4.79 µM. The matching figures for `CCCCCCCCCCCCCCCC[NH][Ge]([NH]CCCCCCCCCCCCCCCC)([NH]CCCCCCCCCCCCCCCC)[NH]CCCCCCCCCCCCCCCC`: more than 7.41 µM and 4.79 µM. On to `[C-]#[O+].[C-]#[O+].[C-]#[O+].[C-]#[O+].[C-]#[O+].[Mo+2].[Mo+4].[c-]1[c-][c-][cH-][c-]1.[c-]1[c-][c-][cH-][c-]1.c1ccc([PH+](CC[PH+](c2ccccc2)c2ccccc2)c2ccccc2)cc1`, for which the EC50 was more than 4.37 µM and the concentration for half-maximal inhibition (IC50) was 2.69 µM. For `CCCC(C(=O)OC)C1N=C(NC#N)N(Cc2ccccc2)C1=O` (stereo not drawn), in that order: more than 110 µM and more than 110 µM.

Regarding `Cn1/c(=N\N=C2\C=C3CCCCC3(C)CC2)sc2ccccc21` (stereo not drawn), the EC50 was more than 200 µM and the IC50 worked out at 155 µM. For `Oc1[nH]c2ccccc2c1N=NC(=S)Nc1cccc(Cl)c1`, in that order: more than 200 µM and 4.57 µM. For `COC(=O)CC(C(C(=O)OC)C(=O)OC)N1C(=O)OC(c2ccccc2)C1c1ccccc1` (stereo not drawn), in that order: 37.2 µM and 74.1 µM. Take `C=CCN1/C(=C2\SC(=S)N(c3ccc(C)cc3)C2=O)Sc2c1nc[nH]c2=O`: the EC50 was more than 2.51 µM and the IC50 was more than 2.51 µM. Consider `CCN1C(=NCCO)NS(=O)(=O)c2ccccc21`, for which the EC50 is more than 200 µM and the concentration for half-maximal inhibition (IC50) is more than 200 µM.

Regarding `O=C(CCc1ccc(O)c(O)c1)NCCc1ccccc1`, the EC50 is more than 200 µM and the 50% inhibitory concentration (IC50) was found to be 21.9 µM.

Turning to `COc1cc2ccc3c4c(OC)cc(OC)c(OC)c4c(=O)n(C)c3c2cc1OC`, the EC50 was more than 45.7 µM and the IC50 worked out at 3.63 µM. As to `COc1cccc(C=C2C(=O)c3ccccc3C2=O)c1`, the result was inactive.

Consider `O=C(O)C[S][Bi]([S]CC(=O)O)[S]CC(=O)O`, for which the outcome was inactive. Take `COc1cc(C(C)(C)C)c(OC(=O)/C=C/C(=O)O/C=C/[N+](=O)[O-])c(C(C)(C)C)c1`: the EC50 is more than 200 µM and the IC50 was determined as 31.6 µM. The matching figures for `Clc1cccc2nn3ccnc3n12`: more than 955 µM and 490 µM. Take `CCOC(=O)CCCCCNc1nc(Cl)nc(Cl)n1`: the EC50 is more than 200 µM and the IC50 is more than 200 µM.

For `CNC(=O)O/N=C1\N(C)CN(c2ccccc2)C12CCN(CCCC(=O)c1ccc(F)cc1)CC2`, the EC50 was more than 200 µM and the IC50 was 105 µM. Turning to `CCCCCCNC(=O)C1=C(C)NC(C)=C(C(=O)NCCCCCC)C1`, the result was inactive and the IC50 amounted to 89.1 µM. Regarding `CC1(C)C=N[N+]2(C)C3C=CC(CC3)C12` (stereo not drawn), the result was inactive. Consider `NC(CSCCSCCSCC(N)C(=O)O)C(=O)O` (stereo not drawn), for which the EC50 was more than 56.2 µM and the IC50 was more than 56.2 µM. Turning to `O=C(Oc1ccc(N=Cc2ccc3c(c2)OCO3)cc1)Oc1ccc(N=Cc2ccc3c(c2)OCO3)cc1`, the outcome was inactive.

As to `NC(=O)CCC(NS(=O)(=O)c1ccc(NC(=O)c2ccccc2)cc1)C(=O)O` (stereo not drawn), the EC50 is more than 617 µM and the IC50 was more than 617 µM. As for `COc1ccc2nc(NC(=O)C(=O)CC(=O)c3ccc(Cl)cc3)sc2c1`, the outcome was inactive.

In the case of `NC(CCCCP(=O)(O)O)C(=O)O` (stereo not drawn), the EC50 is more than 200 µM and the IC50 is more than 200 µM. As for `Cc1ccc([P+](Cc2ccccc2)(c2ccccc2)c2ccccc2)cc1`, the EC50 was more than 200 µM and the IC50 was 1.1 µM.

For the compound `O=C(O)C1C2OC3C(OC(=O)C31)C2Br` (stereo not drawn), the EC50 was more than 200 µM and the IC50 was more than 200 µM. Consider `Cc1cc(C2C(=O)c3ccccc3C2=O)cc(C)c1O`, for which the result was inactive. Same read-out and setting: then `C=C1C=CC2(Br)OC3CC(C)(Cl)C(Br)CC13C2(C)C` (stereo not drawn), with “inactive”. On to `COc1cccc(/C=C/C(=O)c2ccccc2)c1O`, for which the EC50 is 14.5 µM and the IC50 was 112 µM. Turning to `C(#CC[P+](c1ccccc1)(c1ccccc1)c1ccccc1)C[P+](c1ccccc1)(c1ccccc1)c1ccccc1`, the EC50 is more than 200 µM and the IC50 turned out to be 36.3 µM.

For the compound `COC1=NC2=NCCN2C(OC)=N1`, the EC50 was more than 200 µM and the IC50 is more than 200 µM. Consider `CN(C)CCNc1ncnc2nc(-c3ccc4ccccc4c3)[nH]c12`, for which the EC50 is more than 200 µM and the IC50 was more than 200 µM. Consider `O=C1CCC(=O)N1Sc1ccccc1`, for which the result was inactive. For the compound `Cn1c(=O)c2sc3c4sc5c(=O)n(C)c6ccccc6c5c4sc3c2c2ccccc21`, the EC50 was more than 200 µM and the IC50 is more than 200 µM. Regarding `O=C1C(Cl)=C(N2CCN(C3=C(Cl)C(=O)c4ccccc4C3=O)CC2)C(=O)c2ccccc21`, the EC50 was more than 7.76 µM and the IC50 came out at 1.32 µM.

In the case of `O=C1c2ccccc2C(=O)c2c1nc1sccn21`, the EC50 is more than 200 µM and the IC50 came out at 32.4 µM.

Consider `COC1(OC)C2(Cl)C(Cl)=C(Cl)C1(Cl)C1COCC12` (stereo not drawn), for which the outcome was inactive. For `COc1cccc(CC2C(=O)N=C(NC(C)=O)N2C)c1OC(C)=O` (stereo not drawn), the EC50 was more than 200 µM and the IC50 turned out to be 151 µM. `CNC(C)(C)C(SSSC(c1ccc(Cl)cc1)C(C)(C)NC)c1ccc(Cl)cc1` (stereo not drawn): the EC50 was more than 200 µM and the IC50 was 3.55 µM. For the compound `O=C1/C(=C/c2ccc(Cl)cc2)CCc2ccccc21`, the EC50 was more than 19.5 µM and the IC50 was more than 19.5 µM.

As for `COc1ccc(COC(=O)NNC(=O)C2CSC(c3ccccc3)N2C(C)=O)cc1` (stereo not drawn), the EC50 is more than 200 µM and the IC50 was determined as 174 µM. The matching figures for `O=C(N=Nc1cccc(Cl)c1)NNc1cccc(Cl)c1`: more than 200 µM and 15.5 µM. In the case of `CCOC(=N)n1c(=O)n(C2=NCCN2)c2ccccc21`, the EC50 was more than 200 µM and the concentration for half-maximal inhibition (IC50) was 123 µM. The matching figures for `CC(=O)OCC1OC(OCCCCCCO)C(OC(C)=O)C(OC(C)=O)C1OC(C)=O` (stereo not drawn): more than 200 µM and more than 200 µM. The matching figures for `COc1cccc(NC(=O)/C(Cc2nc3ccccc3nc2C)=N/NC(=O)C[n+]2ccccc2)c1`: more than 95.5 µM and more than 95.5 µM.

For `C1CSCC2(COC2)CS1`, the EC50 was more than 1410 µM and the IC50 stood at 1320 µM.

For `CC(=S)N=Cc1c(O)cc(C)oc1=O`, the EC50 was more than 200 µM and the IC50 was more than 200 µM.

`COC(=O)C(Cc1c(C2Nc3ccccc3C2CC(NC(C)=O)C(=O)OC)[nH]c2ccccc12)NC(C)=O` (stereo not drawn): the EC50 was more than 200 µM and the half-maximal inhibitory concentration (IC50) was more than 200 µM. Regarding `COc1cc(/C=C2\CC(C)C/C(=C\c3ccc(O)c(OC)c3)C2=O)ccc1O` (stereo not drawn), the EC50 was more than 200 µM and the IC50 came to 3.39 µM. `CC(=O)NC1C(=O)N(Cc2ccccc2)[C@@H]1COC(C)(C)C` (stereo partly drawn): the EC50 is more than 813 µM and the IC50 was more than 813 µM.

Consider `NC(=S)NNCC(=O)CC(O)(C(F)(F)F)C(F)(F)Cl` (stereo not drawn), for which the EC50 was more than 200 µM and the IC50 stood at 123 µM. For `Cc1cccc(-n2c(C)nc3ccc(NC(=S)Nc4ccccc4)cc3c2=O)c1`, in that order: more than 200 µM and 110 µM. Regarding `Cc1c(Cl)cccc1N1C(=O)C(Cl)=C(Cl)C1=O`, the outcome was inactive.

(Values after PubChem BioAssay AID179 (DTP/NCI, 2004).)
